Measured values taken from ChEMBL document CHEMBL1127994, “Substrate specificity of immobilized penicillin-G acylase towards penicillin and cephalosporin derivatives was studied. The phenylacetyl moiety can be altered at the -position with several small substituents. Depending on polarity and size of the substituent, enzyme activity decreases or increases. …” (Bioorg Med Chem Lett, 1994).

Test system: penicillin-G acylase
Assay: (§1) Hydrolysis half life using immobilized penicillin-G acylase
Assay type: ADME
Conditions: immobilized penicillin-G acylase

half-life [min] | Compound
55 | C=CC1=C(C(=O)O)N2C(=O)[C@@H](NC(=O)Cc3ccccc3)[C@H]2SC1
50 | CC1(C)[C@H](C(=O)O)N2C(=O)[C@@H](NC(=O)Cc3ccccc3)[C@H]2S1(=O)=O
> 10000 | CC1=C(C(=O)O)N2C(=O)[C@@H](NC(=O)c3ccccc3)[C@H]2SC1
3400 | CCC(C(=O)N[C@@H]1C(=O)N2[C@@H]1SC(C)(C)[C@@H]2C(=O)O)c1ccccc1 (some centres not stated)
50 | C/C=C/C1=C(C(=O)O)N2C(=O)[C@@H](NC(=O)Cc3ccccc3)[C@H]2SC1
1420 | CC1=C(C(=O)O)N2C(=O)[C@@H](NC(=O)COc3ccccc3)[C@H]2[S+]([O-])C1 (some centres not stated)
5 | CC1=C(C(=O)O)N2C(=O)[C@@H](NC(=O)C(O)c3ccccc3)[C@H]2SC1 (some centres not stated)
25 | O=C(Cc1ccccc1)N[C@@H]1C(=O)N2C(C(=O)O)=CCS[C@H]12
12 | CC1(C)S[C@@H]2[C@H](NC(=O)[C@H](N)c3ccc(O)cc3)C(=O)N2[C@H]1C(=O)O [AMOXICILLIN]
5 | CC1(C)S[C@@H]2[C@H](NC(=O)[C@H](N)c3ccccc3)C(=O)N2[C@H]1C(=O)O [AMPICILLIN]

Second part, the compound before the results:

Compound | half-life [min]
CC1=C(C(=O)O)N2C(=O)[C@@H](NC=O)[C@H]2[S+]([O-])C1 (some centres not stated) | > 10000
CC1=C(C(=O)O)N2C(=O)[C@@H](NC(=O)Cc3ccsc3)[C@H]2SC1 | 65
CC1=C(C(=O)O)N2C(=O)[C@@H](NC(=O)C(Br)c3ccccc3)[C@H]2[S+]([O-])C1 (some centres not stated) | 370
CC1=C(C(=O)O)N2C(=O)[C@@H](NC(=O)Cc3ccccc3)[C@H]2SC1 | 45
CC1(C)S[C@@H]2[C@H](NC(=O)C(Br)c3ccccc3)C(=O)N2[C@H]1C(=O)O (some centres not stated) | 80
Cn1nnnc1SCC1=C(C(=O)O)N2C(=O)[C@@H](NC(=O)Cc3ccccc3)[C@H]2SC1 | 50
CC1(C)[C@H](C(=O)O)N2C(=O)[C@@H](NC(=O)Cc3ccccc3)[C@H]2[S+]1[O-] (some centres not stated) | 90
CC1(C)S[C@@H]2[C@H](NC(=O)C(Cc3ccccc3)c3ccccc3)C(=O)N2[C@H]1C(=O)O (some centres not stated) | 7000
CC1=C(C(=O)O)N2C(=O)[C@@H](NC(=O)COc3ccccc3)[C@H]2SC1 | 1280
CC1(C)S[C@@H]2[C@H](NC(=O)Cc3ccccc3)C(=O)N2[C@H]1C(=O)O [PENICILLIN G] | 25

Test system: not listed separately
Assay: as §1
Assay type: ADME
Conditions: not given

Compound | T1/2 [min]
CC1=C(C(=O)O)N2C(=O)[C@@H](NC(=O)Cc3ccccc3)[C@H]2[S+]([O-])C1 (stereo in doubt; form 1) | 200
CC1=C(C(=O)O)N2C(=O)[C@@H](NC(=O)Cc3ccccc3)[C@H]2[S+]([O-])C1 (stereo in doubt; form 2) | 33
